Experimental findings from US8349850B2, “Heterocyclic compounds and uses thereof in the treatment of sexual disorders” (ATIR Holding S.A., priority 2006, dated 2013) are described below.

One assay addresses T1, D4.4 receptor (Homo sapiens, UniProt P21917).
T1 construct: expressed in transfected cells; host or cells: CHO cells
T1 sequence (P21917 1-419): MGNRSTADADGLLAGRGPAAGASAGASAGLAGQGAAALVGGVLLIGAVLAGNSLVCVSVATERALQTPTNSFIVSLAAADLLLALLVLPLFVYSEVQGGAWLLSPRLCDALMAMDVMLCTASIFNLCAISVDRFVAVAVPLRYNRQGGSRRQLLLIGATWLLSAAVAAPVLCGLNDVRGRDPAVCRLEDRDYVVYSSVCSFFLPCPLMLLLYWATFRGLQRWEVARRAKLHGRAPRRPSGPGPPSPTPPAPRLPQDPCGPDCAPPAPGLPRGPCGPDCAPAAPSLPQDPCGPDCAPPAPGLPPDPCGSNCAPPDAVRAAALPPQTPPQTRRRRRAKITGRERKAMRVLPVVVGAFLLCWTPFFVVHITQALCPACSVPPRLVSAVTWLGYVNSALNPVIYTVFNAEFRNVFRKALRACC
Description: Competitive binding to D4.4 dopamine receptor ([3H]-YM-09151-2 radioligand). To be noted: 5 mcM compound; human recombinant D4.4 in CHO cells; na = no activity. As for the experimental part:
(§1) Compounds were assayed for competitive binding to D2 SHORT and D4.4 type dopamine receptors. Both receptor types are expressed as human recombinant proteins in CHO cells, as described, for example, in Jarvis et al. (1973); Van Tol et al. (1991) and Van Tol et al. (1992).
(§2) Determination of binding to D4.4 receptor was performed using [^3H]-YM-09151-2 (70-87 Ci/mmol, 0.3 nM), as a radioligand, in with the presence of various concentrations of the tested compound. Reactions were carried out in 50 mM TRIS-HCl (pH 7.4) containing 5 mM MgCl2, 5 mM EDTA, 5 mM KCl and 1.5 mM CaCl2, for 60 minutes at 22° C. The reaction was terminated by rapid vacuum filtration onto glass fiber filters. Radioactivity trapped onto the filters was determined (counted) and compared to control values in order to accurately evaluate any interaction of the tested compound(s) with the cloned dopamine D4.4 binding site.

The target of assay [1] is T2, PDE5 partially purified from human platelets (Homo sapiens, UniProt O76074).
T2 construct: PDE5 partially purified from human platelets was used; from tissue; host or cells: human platelets
Description: Phosphodiesterase Type 5 (PDE5) Inhibition. It is filed as biochemical. To be noted: for PDE5 IC50, 10^−6 M / IC50: 'active' = observed activity not quantitated; for IC50: read-out: PDE5 IC50, 10^−6 M; for exhibit both PDE5 inhibition and D4 agonist activity (dual activity): referring to Table 2 (PDE5 and D4 assays). As for the experimental part: Phosphodiesterase type 5 (PDE5) catalyzes the conversion of cAMP or cGMP to their respective monophosphate forms. PDE5 has a high Km for cAMP and a low Km for cGMP, is insensitive to Ca^2+/calmodulin or cGMP regulation, and is relatively sensitive to inhibitors such as dipyridamol and zaprinast.
PDE5 partially purified from human platelets was used. The tested compound (at a concentration of 0.1, 1, 20 or 50 μM) and/or vehicle was incubated with 3.5 μg enzyme and 1 μM cGMP containing 0.01 μM [^3H]cGMP in Tris buffer pH 7.5 for 20 minutes at 30° C. Since enzyme activity may change from lot to lot, the concentration used was adjusted if required.
The reaction was terminated by boiling the reaction mixture for 2 minutes. The obtained GMP was then converted to guanosine by addition of 10 mg/ml snake venom nucleotidase and further incubation at 30° C. for 10 minutes. Unhydrolyzed cGMP was bound to AG1-X2 resin, and remaining [^3H]Guanosine in the aqueous phase was quantitated by scintillation counting.

The target in assay [2] is T3, Human recombinant dopamine D4.4 receptors expressed in CHO-K1 cells (Homo sapiens, UniProt P21917).
T3 construct: expressed in transfected cells; host or cells: CHO-K1 cells (membranes)
T3 sequence (P21917 1-419): T1 sequence (P21917 1-419)
The assay can be described thus: GTPgammaS Cellular Assay (agonist response). Particulars: relative to the 1 μM dopamine response; tested at 5, 1, 0.1, 0.01 μM (concentration of tabulated value not given); na = no activity; read-out: D4.4(h) GTPgammaS^35 Cellular Assay, Agonist Response, %. Type of assay: biochemical. As to the method: Human recombinant dopamine D4.4 receptors expressed in CHO-K1 cells were used. The tested compound was pre-incubated with 0.1 mg/ml membranes and 10 μM GDP for 20 minutes at 25° C. in modified HEPES buffer (pH 7.4). SPA beads were then added and the mixture was maintained for additional 60 minutes at 30° C. The reaction was initiated by the addition of 0.3 nM [^35S]GTPγS, and the obtained reaction mixture were incubated for 30 minutes. Test compound-induced increase of [^35S]GTPγS binding by 50 percent or more (≧50%) relative to the 1 μM dopamine response indicated dopamine D4.4 agonist activity. Test compound-induced inhibition of 1 μM dopamine-induced increase of [^35S]GTPγS binding response by 50 percent or more (≧50%) indicated receptor antagonist activity. Compounds were tested at concentrations of 5, 1, 0.1, 0.01 μM.

Assay [3] relates to D2 SHORT and D4.4 type dopamine receptors. The assay can be described thus: D4/D2 binding ratio from competitive binding to D4.4 and D2 short receptors. Particulars: ratio of concentrations required to inhibit 50% of radioligand binding for each receptor. Set-up: species or system human. As to the method:
as §1
Determination of binding to D2 short receptor was performed using [^3H]-spiperone, a D2 receptor ligand (Gundlach et al., 1984), as a radioligand (20-60 Ci/mmol, 0.2 nM) in the presence of various concentrations of the tested compound. Reactions were carried out in 50 mM TRIS-HCl (pH 7.4) containing 120 mM NaCl, 5 mM KCl, 5 mM MgCl2 and 1 mM EDTA, for 60 minutes at 25° C. The reaction was terminated by rapid vacuum filtration onto glass fiber filters. Radioactivity trapped onto the filters was determined (counted) and compared to control values in order to accurately evaluate any interaction of the test compound(s) with the cloned dopamine D2 short binding site.
as §2
D4/D2 binding ratios were determined based on the ratio of the concentration of each tested compound required to inhibit 50% of the radioligand binding for each receptor.

SMILES strings stand for the structures.

A word on the inhibition: it is how much of the control response was suppressed. Usually IC50 stands for the midpoint of a concentration-inhibition curve.

Turning to `O=c1[nH]c(CN2CCC=C(c3ccccn3)C2)nc2ccccc12` [Compound B-82, 2-((5,6-dihydro-3-(pyridin-2-yl)pyridin-1(2H)-yl)methyl)quinazolin-4(3H)-one], the inhibition at 5 µM on D4.4 receptor is 12%. Moreover, the “PDE5 % inhibition at 50 mcM” value in assay [1] (50 mcM compound, 1 μM cGMP) is reported as “Problems with solubility”. The “PDE5 IC50, 10^−6 M” value in assay [1] is reported as “Problems with solubility”.
With `CCOc1ccccc1N1CCN(Cc2nc3ccccc3c(=O)[nH]2)CC1` [Compound 108, 2-{[4-(2-ethoxyphenyl)piperazin-1-yl]methyl}quinazolin-4(3H)-one], the inhibition at 5 µM on D4.4 receptor came to 93%. Further, the Emax in assay [2] is 49%. Also, in assay [3], the “D4/D2 Selectivity” value is more than 100.
Regarding `O=c1[nH]c(CN2CCN(c3cccc(O)c3)CC2)nc2cc(Cl)ccc12` [Compound B-8, 7-chloro-2-((4-(3-hydroxyphenyl)piperazin-1-yl)methyl)quinazolin-4(3H)-one], the inhibition at 5 µM on D4.4 receptor worked out at 90%. At 50 µM the inhibition in assay [1] (50 mcM compound, 1 μM cGMP) was 28%. Further, the “PDE5 IC50, 10^−6 M” value in assay [1] was “active”.
For `COc1ccccc1N1CCN(Cc2nc3ccccc3c(=O)[nH]2)CC1` [Compound 107, 2-{[4-(2-methoxyphenyl)piperazin-1-yl]methyl}quinazolin-4(3H)-one], the inhibition at 5 µM at D4.4 receptor came to 88%. Further, the Emax in assay [2] came out at 44%. In addition, in assay [3], the “D4/D2 Selectivity” value was more than 70.
As to `O=c1[nH]c(CN2CCN(c3ncccn3)CC2)nc2nc[nH]c12` [Compound 408, 2-((4-(pyrimidin-2-yl)piperazin-1-yl)methyl)-1H-purin-6(7H)-one], the inhibition at 5 µM on D4.4 receptor amounted to 33%. For the same compound, 50 µM produced 32% inhibition in assay [1] (50 mcM compound, 1 μM cGMP). The “PDE5 IC50, 10^−6 M” value in assay [1] was “active”.
Turning to `CCCn1cnc2nc(CN3CCN(c4cccc(O)c4)CC3)[nH]c(=O)c21` [Compound B-33, 2-((4-(3-hydroxyphenyl)piperazin-1-yl)methyl)-7-propyl-1H-purin-6(7H)-one], at D4.4 receptor, the inhibition at 5 µM came out at 11%. Also, in assay [1] (50 mcM compound, 1 μM cGMP), the inhibition at 50 µM was 31%. Moreover, the “PDE5 IC50, 10^−6 M” value in assay [1] is “active”.
`O=c1[nH]c(CN2CCN(c3ccccc3Cl)CC2)nc2ccccc12` [Compound 109, 2-{[4-(2-chlorophenyl)piperazin-1-yl]methyl}quinazolin-4(3H)-one]: the inhibition at 5 µM at D4.4 receptor turned out to be 57%. Moreover, the Emax in assay [2] came to 54%. Moreover, the “D4/D2 Selectivity” value in assay [3] is reported as more than 100.
Consider `O=c1[nH]c(CN2CCN(c3cccc(O)c3)CC2)nc2ccccc12` [Compound 113, 2-{[4-(3-hydroxyphenyl)piperazin-1-yl]methyl}quinazolin-4(3H)-one], for which the inhibition at 5 µM on D4.4 receptor was 91%. Moreover, in assay [2], the Emax turned out to be 42%. Also, in assay [3], the “D4/D2 Selectivity” value is approximately 50. Further, in assay [1], the IC50 came to 20000 nM; the “exhibit both PDE5 inhibition and D4 agonist activity (dual activity)” value is “both PDE5 inhibition and D4 agonist activity”.
For the compound `O=c1cc(CN2CC=C(c3ccccc3)CC2)nc2ccccn12` [Compound 301, 2-[(4-phenyl-3,6-dihydropyridin-1(2H)-yl)methyl]-4H-pyrido[1,2-a]pyrimidin-4-one], the inhibition at 5 µM on D4.4 receptor was determined as 59%. Further, the Emax in assay [2] was 69%. Also, the “D4/D2 Selectivity” value in assay [3] was approximately 10.
On to `O=c1cc(CN2CC=C(c3ccccc3)CC2)oc2ccccc12` [Compound 201, 2-[(4-phenyl-3,6-dihydropyridin-1(2H)-yl)methyl]-4H-chromen-4-one], for which the inhibition at 5 µM on D4.4 receptor came out at 72%. Besides, the Emax in assay [2] stood at 75%. Besides, the “D4/D2 Selectivity” value in assay [3] is listed as approximately 10.
On the same counts, the results for `N#Cc1ccccc1N1CCN(Cc2nc3ccccc3c(=O)[nH]2)CC1` [Compound 110, 2-{4-[(4-oxo-3,4-dihydroquinazolin-2-yl)methyl]piperazin-1-yl}benzonitrile] are 52%, 69% and more than 500.
Regarding `O=c1[nH]c(CN2CCN(c3ccccc3F)CC2)nc2ccccc12` [Compound 104, 2-{[4-(2-fluorophenyl)piperazin-1-yl]methyl}quinazolin-4(3H)-one], the inhibition at 5 µM on D4.4 receptor was 59%. Moreover, the Emax in assay [2] stood at 62%. Moreover, the “D4/D2 Selectivity” value in assay [3] is on record as more than 100.
Turning to `O=c1[nH]c(CN2CCN(c3ncccn3)CC2)nc2cc(Cl)ccc12` [Compound B-72, 7-chloro-2-((4-(pyrimidin-2-yl)piperazin-1-yl)methyl)quinazolin-4(3H)-one], on D4.4 receptor, the inhibition at 5 µM stood at 70%. This compound also returned an inhibition at 50 µM in assay [1] (50 mcM compound, 1 μM cGMP) of 62%. Also, in assay [1], the IC50 came to 2000 nM; the “exhibit both PDE5 inhibition and D4 agonist activity (dual activity)” value is “both PDE5 inhibition and D4 agonist activity”.
Consider `O=c1[nH]c(CN2CCN(c3nccs3)CC2)nc2ccccc12` [Compound B-11, 2-((4-(thiazol-2-yl)piperazin-1-yl)methyl)quinazolin-4(3H)-one], for which the inhibition at 5 µM on D4.4 receptor was found to be 18%. The compound also came in with an inhibition at 50 µM in assay [1] (50 mcM compound, 1 μM cGMP) of 68%. Also, in assay [1], the concentration for half-maximal inhibition (IC50) came to 2000 nM.
Consider `O=c1[nH]c(CN2CC=C(c3ccccc3)CC2)nc2ccccc12` [Compound 124, 2-[(4-phenyl-3,6-dihydropyridin-1(2H)-yl)methyl]quinazolin-4(3H)-one], for which the inhibition at 5 µM on D4.4 receptor is 73%. Besides, the Emax in assay [2] came out at 57%. Further, the “D4/D2 Selectivity” value in assay [3] is given as approximately 85.
